Test results from PubChem BioAssay (NCI).
Several values for one entry are separate records, joined by “and”; a condition that tells them apart may be missing. Identical values can stand only once.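 Where inhibition never reached the appropriate level, the endpoint shown equals the highest concentration tested. Otherwise, values were interpolated linearly from a five-concentration, 48-hour dose response in 96-well plates. GI50 marks 50% less growth. Definition used: TGI = concentration required for complete inhibition of growth.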

Legend:
Test in all cases: NCI-60 cell line screen, 48 h
[1] = tested on: DU-145 prostate
[2] = tested on: M14 melanoma
[3] = tested on: MOLT-4 leukemia
[4] = tested on: 786-0 renal
[5] = tested on: CAKI-1 renal
[6] = tested on: HS 578T breast
[7] = tested on: SR leukemia
[8] = tested on: MCF7 breast
[9] = tested on: SF-539 CNS
[10] = tested on: NCI-H522 lung

SMILES | GI50 [1] | TGI [1] [µM] | GI50 [2] | TGI [2] | GI50 [3] [µM] | TGI [3] [µM] | GI50 [4] | TGI [4] | GI50 [5] | TGI [5] | GI50 [6] | TGI [6] [µM] | GI50 [7] [µM] | TGI [7] [µM] | GI50 [8] | TGI [8] [µM] | GI50 [9] | TGI [9] | GI50 [10] | TGI [10]
O=C1Nc2ccc(I)cc2/C1=C/c1cc(Br)c(O)c(Br)c1 | > 23.8 µM and 25 µM | > 100 | 10.8 µM and 5.03 µM | > 25 µM and 72.1 µM | > 60.1 | > 100 | > 24.1 µM and 18.2 µM | > 25 µM and 45.5 µM | > 15.9 µM and 14.9 µM | > 25 µM and 72 µM | > 17.9 µM and 21.3 µM | > 80.4 | > 49.5 | 98.9 | > 20.1 µM and 15.4 µM | > 82.2 | > 20.2 µM and 14.1 µM | > 25 µM and 43.8 µM | 16.2 µM and 16.5 µM | > 25 µM and 42.3 µM
COc1cc(F)c(F)c(F)c1C(=O)c1cnc(NC2CCN(S(C)(=O)=O)CC2)nc1N | 2.58 µM | > 22 | 3.09 µM | 10.2 µM | 0.845 | 11.4 | 1.64 µM | > 21.5 µM | 0.843 µM | 10.8 µM | 3.17 µM | 18.1 | 0.371 | > 10 | 0.166 µM | > 25 | 1.24 µM | 6.06 µM | 5.56 µM | 15.6 µM
CS(=O)c1cc(=O)c2ccccc2s1 (stereo not given) | – | 34.3 | – | 3.12 µM | – | 6.36 | – | 7.41 µM | – | 6.2 µM | – | 62.7 | – | 4.67 | – | 14.4 | – | 18.4 µM | – | 3.07 µM
CN(C)CCCn1c2c(c3ccc(N4CCNCC4)cc3c1=O)C(=O)c1ccccc1-2 | 0.329 µM | 1.65 | 1.05 µM | 2.39 µM | 0.0979 | 0.922 | 1.34 µM | 2.73 µM | 1.05 µM | 4.52 µM | 1.44 µM | 4.38 | 0.307 | 1.69 | 0.296 µM | 1.78 | 1.61 µM | 3.16 µM | 0.96 µM | 2.55 µM
O=C(c1ccco1)c1c(C(F)(F)F)n([O-])c2cc(Cl)c(Cl)cc2[n+]1=O | 0.787 µM | 2.03 | 0.715 µM | 1.46 µM | 0.0591 | 1.41 | 0.241 µM | 0.456 µM | 0.434 µM | 1.24 µM | 0.706 µM | 1.98 | 0.0497 | 50 | 0.123 µM | 0.452 | 0.768 µM | 1.53 µM | 0.202 µM | 1.33 µM
C/C=C/C(C/C=C(\C)CO[Si](C)(C)C(C)(C)C)O[Si](C)(C)C(C)(C)C (stereo not given) | – | > 100 | – | > 100 µM | – | > 100 | – | > 100 µM | – | > 100 µM | – | > 100 | – | > 100 | – | > 100 | – | > 100 µM | – | > 100 µM
COc1ncc(-c2ccc3nc(N)n(-c4ccccc4C(F)(F)F)c(=O)c3c2)cc1S(=O)(=O)Nc1ccc(F)cc1F | 0.897 µM | > 100 | 1.23 µM | 14.8 µM | 3.85 | 56.1 | 3.16 µM | 83.7 µM | 0.122 µM | > 100 µM | 1.3 µM | 84.4 | 1.35 | 17.3 | 2.05 µM | 29.4 | 1.22 µM | 20.4 µM | 3.04 µM | 24.5 µM
CC(=O)Nc1ccc(S(=O)(=O)N2C(=O)CCC2C(=O)Nc2ccccc2)cc1 (stereo not given) | 3.46 µM | 19.2 | 0.265 µM | 12.5 µM | 1.96 | 14.5 | 1.42 µM | 13.3 µM | 0.46 µM | 17.5 µM | 2.71 µM | 36.2 | 0.913 | 12.1 | 0.73 µM | 14.7 | 0.542 µM | 4.4 µM | 0.491 µM | 6.27 µM
CC1(C)N=C(N)N=C(N)N1c1cccc(CC(=O)Nc2ccccc2)c1 | 12.7 µM | > 100 | 40.2 µM | > 100 µM | 25.2 | > 100 | 78.5 µM | > 100 µM | > 100 µM | > 100 µM | 11.5 µM | 73.2 | 2.53 | > 100 | 7.56 µM | > 100 | 10.5 µM | > 100 µM | 47.5 µM | > 100 µM
c1c[nH]c(CN2CCN(Cc3ncc[nH]3)CC2)n1 | – | > 100 | – | > 100 µM | – | > 100 | – | > 100 µM | – | > 100 µM | – | > 100 | – | > 100 | – | > 100 | – | > 100 µM | – | > 100 µM
CC[C@@]12CC(C(=O)OC)=C3Nc4ccccc4[C@@]34CCN(C[C@H]3O[C@H]31)[C@@H]24 | > 100 µM | > 100 | 31.7 µM | > 100 µM | 27.9 | > 100 | > 100 µM | > 100 µM | 36.9 µM | > 100 µM | 25.4 µM | > 100 | 24 | > 100 | 46 µM | > 100 | 61.2 µM | > 100 µM | 20.9 µM | > 100 µM
